Results from publication PMC9569971, “New Oxazolo[5,4-d]pyrimidines as Potential Anticancer Agents: Their Design, Synthesis, and In Vitro Biological Activity Research” (International Journal of Molecular Sciences, 2022).
Entries after “also recorded” stand apart in the source; their conditions may differ. Marks after values point to notes of the source that are not given here. Values belong to the compound of their own block, whether it stands above or below them.

What was measured:
[1] = test system: breast adenocarcinoma (MCF7); assay: MTT viability assay, MCF7; format: cell-based, human; conditions: MCF7, MTT, tested 1–500 µM
Method: (§1) When the confluence was greater than 70%, adherent cell lines were detached from the bottle surface with a TrypLE solution and then used in assays or reduced. The cells were collected into centrifuge tubes and centrifuged at 1000× g for 5 min at room temperature. The supernatant was removed to dry. The cell pellets were then resuspended in an appropriate medium. The cells were counted using a Bürker chamber and resuspended in 96-well plates to a cell density of 10,000 cells per well for MTT assay. For the rhodamine accumulation test and the detection of apoptosis assay, cells were seeded at a density of 30,000 per well. In the migration assay, cells were seeded at a density of 20,000 per well, and monolayer formation was awaited.
(§2) In this study, normal human dermal fibroblasts (NHDFs), breast cancer cells (MCF7), human lung adenocarcinoma cells (A549), murine fibroblasts (L929), colon adenocarcinoma cells (HT29), and colorectal adenocarcinoma cells (LoVo) were used. All cell lines were cultured in the recommended media. […] The human lung adenocarcinoma cell line A549 and breast cancer cell line MCF-7 were obtained from the ECACC. These cell lines were cultured in Eagle’s minimal essential medium (MEM). Murine fibroblast L929 (Sigma-Aldrich, Merck Group, Headquarters, Darmstadt, Germany; the European Collection of Authenticated Cell Cultures—ECACC) cells were grown in DMEM. […] All media were supplemented with 10% FBS and 100 µg/mL of penicillin–streptomycin.
(§3) All compounds were dissolved in DMSO and the reference drugs were dissolved in physiological saline to concentrations of 10 mM. Concentrations from 1 to 500 μM in the media recommended for the cell lines were prepared for the tests.
(§4) All of the synthesized derivatives were evaluated via the MTT assay. All cell lines were seeded into 96-well plates at a density of 10,000 cells per well. To allow the cells to adhere to the surface of the plates, they were incubated overnight before the application of the test compounds. […] The tests were performed for concentrations of 1, 5, 10, 25, 50, 100, 250, and 500 μM. The solutions of the test compounds were removed from the culture on the 96-well plates. […] The supernatant was then removed. The violet crystal was dissolved in isopropanol for 30 min by shaking. Absorbance was measured at 570 nm.
(§5) Biological assays were performed in three independent replicates, and each replicate used four samples. Three repetitions were made for the ELISA determinations. For the assessment of cytotoxicity, mathematical models were developed using the GraphPad PRISM software, based on which CC50 was determined. The values of CC50 were estimated based on nonlinear regression using the dependence of the biological effect on the molar concentrations of the compounds (four-parameter logistic model with Hill slope).

[2] = target: T1, P-glycoprotein (P-gp) in HT29 cells (Homo sapiens, UniProt P08183); assay: Rhodamine-123 (Rh-123) accumulation assay; format: cell-based; conditions: HT29, 24 h, over all tested concentrations (1–20 μM)
T1 construct: evaluate their effects on the efflux activity of P-gp in HT29 cells; host or cells: HT29 colon adenocarcinoma cells
T1 sequence (P08183 whole entry): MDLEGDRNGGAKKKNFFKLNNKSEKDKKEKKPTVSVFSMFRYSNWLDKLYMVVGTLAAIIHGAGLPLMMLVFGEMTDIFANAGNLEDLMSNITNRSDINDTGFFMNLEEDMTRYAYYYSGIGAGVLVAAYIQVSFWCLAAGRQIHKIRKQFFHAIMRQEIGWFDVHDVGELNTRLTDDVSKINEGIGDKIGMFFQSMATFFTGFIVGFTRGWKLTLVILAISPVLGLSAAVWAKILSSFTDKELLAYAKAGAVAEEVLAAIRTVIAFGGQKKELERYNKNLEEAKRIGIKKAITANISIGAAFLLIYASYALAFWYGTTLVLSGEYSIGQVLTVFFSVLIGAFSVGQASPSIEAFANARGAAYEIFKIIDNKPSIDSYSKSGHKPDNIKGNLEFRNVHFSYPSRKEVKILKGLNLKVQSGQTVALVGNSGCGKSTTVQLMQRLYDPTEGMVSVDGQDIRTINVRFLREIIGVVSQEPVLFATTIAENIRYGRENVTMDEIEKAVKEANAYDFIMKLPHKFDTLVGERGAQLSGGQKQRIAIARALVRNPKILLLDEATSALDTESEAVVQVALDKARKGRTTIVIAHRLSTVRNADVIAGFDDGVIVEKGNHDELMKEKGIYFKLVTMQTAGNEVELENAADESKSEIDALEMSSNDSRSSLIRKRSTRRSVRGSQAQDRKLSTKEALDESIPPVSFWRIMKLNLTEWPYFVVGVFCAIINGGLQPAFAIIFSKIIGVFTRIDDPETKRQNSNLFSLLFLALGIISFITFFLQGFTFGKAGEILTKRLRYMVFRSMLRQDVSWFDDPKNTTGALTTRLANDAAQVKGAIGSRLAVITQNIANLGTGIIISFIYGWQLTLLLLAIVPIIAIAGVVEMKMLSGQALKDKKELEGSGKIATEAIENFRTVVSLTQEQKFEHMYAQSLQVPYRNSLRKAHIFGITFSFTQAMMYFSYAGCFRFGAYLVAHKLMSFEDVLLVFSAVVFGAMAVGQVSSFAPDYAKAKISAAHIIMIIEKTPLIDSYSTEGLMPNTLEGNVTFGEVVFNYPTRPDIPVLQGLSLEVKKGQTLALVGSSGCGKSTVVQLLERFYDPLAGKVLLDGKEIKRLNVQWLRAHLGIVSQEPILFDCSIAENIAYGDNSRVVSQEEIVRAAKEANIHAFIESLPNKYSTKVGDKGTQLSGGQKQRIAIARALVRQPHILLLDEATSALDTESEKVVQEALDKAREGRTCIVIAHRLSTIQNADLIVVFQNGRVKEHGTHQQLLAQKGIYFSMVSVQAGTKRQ
Method: as §1
The level of significance was set at p < 0.05.

[3] = test system: normal human dermal fibroblasts (NHDF); assay: MTT viability assay, NHDF; format: cell-based; conditions: tested 1–500 µM
Method: as §1, §2, §3, §4, §5

[4] = test system: primary colon adenocarcinoma (HT29); assay: MTT viability assay, HT29; format: cell-based, human
Method: as §1, §2, §3, §4, §5

[5] = test system: lung adenocarcinoma (A549); assay: MTT viability assay, A549; format: cell-based, human
Method: as §1, §2, §3, §4, §5

[6] = test system: HT29 primary colon adenocarcinoma cells; assay: Detection of apoptosis (Annexin V FITC / propidium iodide); format: cell-based, human; set-up: unit not given here; conditions: 24 h
Method: as §1, with “All cell lines were grown in 5% CO2 at 95% humidity and 37 °C, with both morphology and confluence assessed twice per week. When” for “When”
HT29 primary colon adenocarcinoma cells were grown in 96-well plates for 24 h. The 5 selected derivatives were added at concentrations of 1, 2, 5, and 10 µM, and then incubated for 24 h. The mixture of Annexin V conjugated with fluorescein and propidium iodide in PBS with Mg^2+ and Ca^2+ ions (Thermo Fisher Scientific, Waltham, MA, USA) was then applied. The incubation lasted 20 min at 37 °C. Pictures were taken using a fluorescence microscope. Thirteen images were taken from each well using an EVOS FL fluorescence microscope, with three replications for each compound. The open ImageJ space was used to analyze the number of cells. The Thermo Fisher Dead Cell Apoptosis Kit with Annexin V FITC and Propidium Iodide (PI) detects phosphatidylserine extrusion in apoptotic cells using Annexin V conjugated with a green fluorescent FITC dye and dead cells stained by PI with red fluorescence.

[7] = test system: murine fibroblasts (L929); assay: MTT viability assay, L929; format: cell-based; conditions: tested 1–500 µM
Method: as §1, §2, §3, §4, §5

Jurkat T-cell = test system: Jurkat T-cell; set-up: method as in PMID 32759841; conditions: cited from earlier work
HT29 = test system: HT29; set-up: method as in PMID 32759841; conditions: estimated based on data taken from reference; cited from earlier work

intracellular increase in rhodamine accumulation [2]: no intracellular increase
SMILES: CNc1ncnc2oc(-c3c(C)noc3N)nc12 [Compound 3a, 2-(5-Amino-3-methylisoxazol-4-yl)-7-N-methylaminooxazolo[5,4-d]pyrimidine]
CC50 ± SD [1]: no cytotoxic activity
CC50 ± SD [3]: Non-toxic
SI (selectivity index) ([4]; CC50 NHDF / CC50 HT29): >>1
CC50 ([4]; Homo sapiens, HT-29, HT29, MTT, tested 1–500 µM): 159 ± 12.1 µM
SI (selectivity index) ([5]; CC50 NHDF / CC50 A549): >>1 ^c
CC50 ([5]; Homo sapiens, A549, MTT, tested 1–500 µM): 245 ± 19 µM
apoptosis mean ([6]; 1 μM): 6.89
late apoptosis mean ([6]; 1 μM): 11.16
necrosis mean ([6]; 1 μM): 4.43
percent live (viable) cells ([6]; 1 μM): 77.51
apoptosis mean ([6]; 2 μM): 5.35
late apoptosis mean ([6]; 2 μM): 11.15
necrosis mean ([6]; 2 μM): 9.07
percent live (viable) cells ([6]; 2 μM): 74.42
apoptosis mean ([6]; 5 μM): 9.38
late apoptosis mean ([6]; 5 μM): 11.51
necrosis mean ([6]; 5 μM): 2.76
percent live (viable) cells ([6]; 5 μM): 76.34
apoptosis mean ([6]; 10 μM): 10.99
late apoptosis mean ([6]; 10 μM): 12.07
necrosis mean ([6]; 10 μM): 5.55
percent live (viable) cells ([6]; 10 μM): 71.40
CC50 ± SD [7]: no toxic activity; also recorded: Non-toxic ^b

SMILES: Cc1nc(NCCCN(C)C)c2nc(-c3c(C)noc3N)oc2n1 [SCM9]
expression of apoptosis-modulating proteins (Jurkat T-cell; Jurkat T-cell model): did not alter
expression of MAPK pathway components JNK, p38α, and p38β (Jurkat T-cell): increased
CC50 (HT29): 39.1 ± 7.79 µM
